Patent USRE48887E1, “RNA interference compositions and methods for malignant tumors” (Nitto Denko Corporation, priority 2014, dated 2022)
d = 2'-deoxy (DNA); m = 2'-O-methyl; r = 2'-OH (RNA); f = 2'-fluoro

Experiments:
GST-π mRNA = experiment: Knockdown of GST-π mRNA in A549 xenograft tumors in vivo; set-up: species or system mouse
[1] = tested on: A549 orthotopic lung cancer tumors; experiment: Orthotopic A549 lung cancer mouse model; details: 2 mg/kg
Method: The anti-tumor efficacy of the siRNA formulation against human lung cancer A549 was evaluated by comparing the final primary tumor weights measured at necropsy for the treatment group and the vehicle control group.
For this study, male NCr nu/nu mice, 5-6 weeks old, were used. The experimental animals were maintained in a HEPA filtered environment during the experimental period. The siRNA formulations were stored at 4° C. before use, and warmed to room temperature 10 minutes prior to injection in mouse.
For this A549 human lung cancer orthotopic model, on the day of surgical orthotopic implantation (SOI), the stock tumors were harvested from the subcutaneous site of animals bearing A549 tumor xenograft and placed in RPMI1640 medium. Necrotic tissues were removed and viable tissues were cut into 1.5-2 mm^3 pieces. The animals were anesthetized with isoflurane inhalation and the surgical area was sterilized with iodine and alcohol. A transverse incision approximately 1.5 cm long was made in the left chest wall of the mouse using a pair of surgical scissors. An intercostal incision was made between the third and the fourth rib and the left lung was exposed. One A549 tumor fragment was transplanted to the surface of the lung with an 8-0 surgical suture (nylon). The chest wall was closed with a 6-0 surgical suture (silk). The lung was re-inflated by intrathoracic puncture using a 3 cc syringe with a 25 G×1½ needle to draw out the remaining air in the chest cavity. The chest wall was closed with a 6-0 surgical silk suture.
Three days after tumor implantation, the model tumor-bearing mice were randomly divided into groups of ten mice per group. For the group of interest, treatment of the ten mice was initiated three days after tumor implantation.
For the group of interest, the formulation was (Ionizable lipid: cholesterol:DOPE:DOPC:DPPE-PEG-2K:DSPE-PEG-2K), a liposomal composition. The liposomes encapsulated the GST-π siRNA.
For the study endpoint, the experimental mice were sacrificed forty-two days after treatment initiation. […]

[2] = tested on: A549 cancer xenograft tumors; experiment: A549 cancer xenograft model, tumor inhibition efficacy; format: in vivo, mouse; details: 0.75 mg/kg IV, two injections (day 1 and 15)
Method: For the cancer xenograft model, an A549 cell line was obtained from ATCC. The cells were maintained in culture medium supplemented with 10% Fetal Bovine Serum and 100 U/ml penicillin and 100 μg/ml streptomycin. Cells were split 48 hrs before inoculation so that cells were in log phase growth when harvested. Cells were lightly trypsinized with trypsin-EDTA and harvested from tissue culture. The number of viable cells was counted and determined in a hemocytometer in the presence of trypan blue (only viable cells are counted). The cells were resuspended to a concentration of 5×10^7/ml in media without serum. […]
For tumor volume measurements and randomization, tumor size was measured to the nearest 0.1 mm. Tumor volumes were calculated using the formula: […]. […] Tumor volumes were monitored three times for week 1, twice for the rest of weeks, including the day of study termination. […]
For body weight, mice were weighed to the nearest 0.1 g. Body weights were monitored and recorded daily within 7 days post dosing for first dose. Body weights were monitored and recorded twice for weeks, for the rest of weeks, including the day of study termination.
For tumors collection, on 28 days post first dosing, tumor volume was measured, and tumor was dissected for weight measurement, and stored for PD biomarker study. Tumor weight was recorded. […]

PUMA = PUMA biomarker for apoptosis of cancer cells in vitro (qPCR); format: cell-based; details: from 2-4 days after transfection; siRNA 10 nM
Method: The protocol for the PUMA biomarker was as follows. One day before transfection, cells were plated in a 96-well plate at 2×10^3 cells per well with 100 μl of DMEM (HyClone Cat. # SH30243.01) containing 10% FBS and cultured in a 37° C. incubator containing a humidified atmosphere of 5% CO2 in air. Next day, before transfection the medium was replaced with 90 μl of Opti-MEM I Reduced Serum Medium (Life Technologies Cat. #31985-070) containing 2% FBS. Then, 0.2 μl of Lipofectamine RNAiMAX (Life Technologies Cat. #13778-100) were mixed with 4.8 μl of Opti-MEM I for 5 minutes at room temperature. 1 μl of the siRNAs (stock conc. 1 μM) was mixed with 4 μl of Opti-MEM I and combined with the RNAiMAX solution and then mixed gently. The mixture was incubated for 10 minutes at room temperature to allow the RNA-RNAiMAX complexes to form. 10 μl of RNA-RNAiMAX complexes were added per well, to final concentration of the siRNA 10 nM. The cells were incubated for 2 hours and medium changed to fresh Opti-MEM I Reduced Serum Medium containing 2% FBS. […] PUMA (BBC3, Cat# Hs00248075, Life Technologies) mRNA levels were measured by qPCR with TAQMAN.
The protocol for the PUMA biomarker was as follows. […] PUMA (BBC3, Cat#Hs00248075, Life Technologies) mRNA levels were measured by qPCR with TAQMAN.

Row | Substance | reduction of GST-π mRNA (GST-π mRNA; 4 mg/kg, single injection, 24 hours after injection) | GST-π mRNA expression (GST-π mRNA; 4 days after injection in a lipid formulation) | final tumor average weights reduced as compared to control ([1]; after 43 days, liposomal formulation, athymic nude mice) | mean body weight of the mice ([1]; entire experimental period) | other symptoms of toxicity ([1]; entire experimental period) | tumor volume reduced as compared to control ([2]; after 36 days, liposomal formulation) | tumor weight reduced ([2]; endpoint day) | expression of PUMA (PUMA)
1 | SEQ ID NOs:61 and 126: GST-π siRNA; sense GAAGCCUUUUGAGACCCUAtt; antisense UAGGGUCUCAAAAGGCUUCag (sense GAAGCCUUUUGAGACCCUATT; antisense UAGGGUCUCAAAAGGCUUCAG; chemistry not given here) | about 40% | significant reduction | 2.8 fold | maintained within the normal range | not observed |  |  | 
2 | SEQ ID NOs:156 and 182: GST-π siRNA, Table 2; sense GAAGCCUUUUGAGACCCUAUU; antisense fUAGgGuCuCAAAAGGCUUCUU (antisense UAGGGUCUCAAAAGGCUUCUU; sense: sugars from the 5' end mmmrrrrmrmrrrrrrrmmmm, backbone not given here; antisense: sugars from the 5' end frrdrdrdmrmmrrrrmmrmm, backbone and T or U not given here) |  |  |  |  |  | 2 fold | more than 2 fold | greatly increased
